Experimental data from a compilation of properties of binary mixtures (doi:10.1007/s10953-018-0732-1).
One block for each molecule: values may come before it.

Test: xn = mol fraction of the nth substance listed
Conditions: 101.3 kPa

SMILES: c1c[nH]cn1 + CC(C)C[P+](C)(CC(C)C)CC(C)C.Cc1ccc(S(=O)(=O)[O-])cc1
viscosity (303.09 K, x2 = 0.5): 357 mPa·s
viscosity (323.07 K, x2 = 0.5): 100 mPa·s
viscosity (333.11 K, x2 = 0.5): 63 mPa·s
viscosity (343.1 K, x2 = 0.5): 43.3 mPa·s
viscosity (353.08 K, x2 = 0.5): 32.8 mPa·s

SMILES: c1c[nH]cn1 + CCCCCC[N+]1(C)CCCC1.O=S(=O)([N-]S(=O)(=O)C(F)(F)F)C(F)(F)F
viscosity (323.15 K, x2 = 0.5): 23.8 mPa·s
viscosity (333.15 K, x2 = 0.5): 16 mPa·s

SMILES: c1c[nH]cn1 + CCCC[N+]1(C)CCCC1.O=S(=O)([N-]S(=O)(=O)C(F)(F)F)C(F)(F)F
viscosity (323.15 K, x2 = 0.5): 18.6 mPa·s
viscosity (333.15 K, x2 = 0.5): 13.5 mPa·s
viscosity (343.15 K, x2 = 0.5): 9.7 mPa·s
viscosity (353.15 K, x2 = 0.5): 7.9 mPa·s

viscosity (303.05 K, x1 = 0.5): 176 mPa·s
viscosity (323.05 K, x1 = 0.5): 61 mPa·s
viscosity (333.05 K, x1 = 0.5): 40.2 mPa·s
viscosity (343.05 K, x1 = 0.5): 29.5 mPa·s
SMILES: CCCC[P+](CCCC)(CCCC)CCCC.CS(=O)(=O)[O-] + c1c[nH]cn1
